Measurements reported in ChEMBL document CHEMBL3507680, “University of Dundee, Gates Library screen for HepG2 cell viability”.

test: Human HepG2 cell viability assay in 384 well format; type: toxicity, cell-based; design: dose 125 nL, time 70.5 hour; concentration not given beside the values; conditions: HepG2 cells, read-out: Inhibition

Row | Structure (SMILES) | cytotoxicity at 70.5 h [%]
1 | CCc1nn(C)c(Cl)c1CN(CCOC)Cc1cnn(C)c1 | 0.921
2 | NCCC(=O)N1CCC2(CC1)CN(C(=O)Cc1ccc(Cl)cc1)CCO2 | -14.3
3 | CCc1nnsc1C(=O)N1CCCN(Cc2cnn(CC)c2)CC1 | -7.53
4 | O=C(OC1CCC1)c1ncccc1C(F)(F)F | -3.86
5 | CC(=O)N1CCCC1c1nccnc1Nc1cccc(C)n1 (centres undefined) | -16.6
6 | c1ccc(CN2CCc3ncnc(C4CC4)c3CC2)cc1 | 26.7
7 | CSc1nccn1-c1ccc(C(=O)NCC2CC2)cc1 | -4.68
8 | O=C(Cc1cccs1)NCC1(O)CCSCC1 | -3.88
9 | c1ccc2nc(N3CCCCC3)c(NCc3nnc4n3CCC4)nc2c1 | -8.39
10 | COc1ccc(Cl)cc1CNCCCn1ccnc1 | -2.31
11 | CC(C)=CCN1CC2(CCN(Cc3ncc[nH]3)CC2)CC1=O | 11.6
12 | CCOCc1cccc(S(=O)(=O)N2CCSCC2)c1 | -3.6
13 | CSc1ncccc1C(=O)NCC(c1ccco1)N(C)C (centres undefined) | 4.37
14 | COC(=O)[C@@H](NC(=O)Nc1ccc(C(C)=O)cc1)C(C)C | 13.3
15 | Cc1cccc(C(=O)Nc2cccc3c2C(=O)NC3)n1 | -5.67
16 | CC(NC(=O)c1cc2n(n1)CCCN(C)C2)c1cn2ncsc2n1 (centres undefined) | -7.44
17 | Cc1n[nH]c2ncc(CNC3CCN(Cc4ccccn4)CC3)cc12 | -6.34
18 | O=C(N[C@@H]1CCN(Cc2ccc(F)cc2F)C[C@H]1O)c1cccnc1 | 8.03
19 | COCC(=O)N1CCC2(CC1)NC(=O)[C@H]1CN(C(=O)N(C)C)C[C@H]12 | -7.64
20 | Cc1nn(CC(=O)NCC2(C(N)=O)CCOCC2)c(C)c1Cl | -8.87
21 | CC(C)=CCN1C[C@H]2CC[C@@H]1CN(C(=O)c1ccc3c(c1)OCO3)C2 | 1.98
22 | Cc1cc(CNC(=O)c2cc(C(C)C)n(C)n2)ccc1S(C)(=O)=O | -8.39
23 | O=C(NCc1ccc(OCC2CC2)nc1)C1COc2ccccc2O1 (centres undefined) | -5.51

Row | Structure (SMILES) | cytotoxicity at 70.5 h [%]
24 | Cc1nn(C)c(C)c1S(=O)(=O)N1CC[C@@H]2O[C@@H](C)C[C@H]2C1 | -11.2
25 | Cc1nn(C)c(C)c1CCC(=O)Nc1nnc(C2CC2)s1 | 22.3
26 | O=C(N[C@@H]1CN(CCc2ccc(F)cc2)C[C@H]1O)c1cscn1 | -6.14
27 | Cc1nnc(C2CCN(c3ncccn3)CC2)o1 | -15
28 | Cc1nc(NC(=O)N2CCCC(C(C)(C)O)C2)nn1C (centres undefined) | -6.42
29 | Cc1ccc(CN2C[C@@H]3CCCO[C@@H]3[C@H](N(C)Cc3ccco3)C2)o1 | -9.18
30 | CC(C)Cc1cc(NC(=O)c2ccccn2)n(C)n1 | -10.2
31 | CCOCCN1CCN(Cc2csc(-c3cnn(C)c3)n2)CC1 | -13.2
32 | CN(Cc1nnc2n1CCC2)C(=O)c1ccc(=O)n(C)n1 | 4.72
33 | CN1CCN(C(=O)c2ncn3c2CN(C)S(=O)(=O)c2ccccc2-3)CC1 | 1.76
34 | CCCn1cc(NC(=O)c2cccc(CN3CC=CC3)c2)nn1 | 45.4
35 | CCc1cccc(OCCCN(C)C(=O)CN2CCNC2=O)c1 | 0.78
36 | COc1ccc(C(=O)C2CCCN(Cc3cnn(C)c3C)C2)c(OC)c1 (centres undefined) | -20.2
37 | Cc1cnn(C2CN(CC(=O)NCC3(c4ccccc4)CCC3)C2)c1 | -2.82
38 | COCC(NC1CSCCSC1)c1ccnn1C (centres undefined) | -13.2
39 | CC(C)NC(=O)N1CCC2(COCc3cnc(-c4cccnc4)nc32)C1 (centres undefined) | -2.99
40 | CCN(CC)Cc1cn2c(n1)CN(Cc1c(C)noc1C)CC2 | 0.0103
41 | OC(COCc1cccs1)Cn1cc(-n2cccc2)cn1 (centres undefined) | 2.56
42 | Nc1nccnc1C(=O)N1CCN(Cc2cccc3ccccc23)CC1 | 28
43 | COc1ccc(C2=CCN(C(=O)CN(C)CC(N)=O)CC2)cc1 | -2.43
44 | Cn1cc(CN2C[C@H]3CCC[C@@H](CNc4nccn4C)[C@H]3C2)cn1 | -3.76
45 | Cc1nc(Cn2c3c(ccc2=O)CC(N)CC3)cs1 (centres undefined) | 4.04
46 | Cc1cc(C)n(C2CCCN(C(=O)c3cc(C(N)=O)cs3)C2)n1 (centres undefined) | 0.983

Row | Structure (SMILES) | cytotoxicity at 70.5 h [%]
47 | Cc1nccn1CCC1CCN(C(C)C)CC1 | -2.75
48 | O=C([C@H]1CN(Cc2ccncc2)C[C@H]2OCC[C@@H]12)N1CCCCO1 | -14.4
49 | O=C1CC2(CCN(Cc3ccco3)C2)CN1c1ccc2c(c1)OCO2 (centres undefined) | 11.6
50 | O=C([C@@H]1COC[C@H]2CN(C3CCCC3)C[C@H]21)N1CCCO1 | -1.63
51 | CN(C)CCN1C(=O)CCCC12CCCN(C(=O)c1ccncc1)C2 (centres undefined) | -3.49
52 | Cc1ccc(CN2CCC(n3cc(CN4CCC(O)CC4)nn3)CC2)s1 | -6.27
53 | Cc1nc(CN2C(=O)COC3(CCN(Cc4ccco4)CC3)C2C)cs1 (centres undefined) | -1.55
54 | Cc1cc(O)cc(=O)n1CCCC(=O)Nc1n[nH]c2ccccc12 | -11.5
55 | CCOc1ccc(Cl)c(C(=O)NCCC(=O)Nc2ccncc2)n1 | 0.642
56 | CN1CCOC(CNC(=O)CCCc2ccccc2)C1 (centres undefined) | -4.54
57 | Cc1ccc(C(=O)N2CCC3(CCC(=O)N(CC(N)=O)C3)CC2)cc1 | -8.05
58 | COCCn1ccnc1-c1[nH]cnc1C | 6.67
59 | Cc1nc(-c2ccc(Cl)s2)sc1C(=O)NCCS(N)(=O)=O | -13.2
60 | O=C(Nc1ccccc1Cn1cccn1)N1CCC(N2CCCC2)C1 (centres undefined) | -2.57
61 | COc1ccc(Cl)cc1C(=O)N1CCCC(n2nc(C)nc2C)C1 (centres undefined) | 27.7
62 | CN(Cc1ccccc1)CC(C)(C)NC(=O)c1cnccn1 | -0.0333
63 | CNC(=O)c1ccc(OC)c(NCc2ncc(-c3cccs3)o2)c1 | -92.5
64 | COc1ccc(Oc2ncccc2C(N)=O)cc1CN1CCCC1 | -7.33
65 | CCN(Cc1ccoc1)C(=O)Nc1ccccc1CN1CCOCC1 | 7.89
66 | O=C1NCCN1C1CCN(CCOc2ccccc2Cl)CC1 | 0.552
67 | Cc1ccc(C(=O)N2C[C@@H](OCc3cccnc3)[C@H]3OCCC[C@H]32)o1 | 3.45
68 | Fc1cccnc1N1CCOCC2(CCCN(c3nncs3)C2)C1 (centres undefined) | -9.83
69 | Cc1cnn(CCNCc2ccccc2C#N)c1 | 13.2

Row | Structure (SMILES) | cytotoxicity at 70.5 h [%]
70 | Cn1ccc(C(=O)N2CCCC(Cc3cccc4cccnc34)C2)n1 (centres undefined) | 11.6
71 | N#CCCN(Cc1cccnc1)C(=O)c1cc(Cl)c[nH]1 | -7.86
72 | CC(C)C1CN(C(=O)c2cccs2)CCS1 (centres undefined) | -4.53
73 | CS(=O)(=O)CCCSc1cccc(C#N)c1 | -13
74 | CCNC(=O)[C@@H]1C[C@H](NC(=O)Cc2ccsc2)CN1Cc1ccc(C)o1 | -8.83
75 | COCCNC(=O)[C@@H](C)[C@@H]1CCc2c(C)cc(OCC(=O)O)c(C)c2C1 | -6
76 | N#Cc1ccc(C2CC(=O)Nc3c2cnn3C2CCCC2)cc1 (centres undefined) | -2.74
77 | Cc1noc(CNc2cc3c(cc2Cl)NC(=O)CO3)n1 | -10.2
78 | Cc1nc(CNCC2COCc3c(-c4ccoc4)nnn3C2)cs1 (centres undefined) | -6.23
79 | COCCOCC(=O)N1CCc2cc(Cl)cc(Cl)c2C1 | -6.61
80 | COCC(=O)N[C@@H]1CN(Cc2ccc3c(c2)OCCO3)C[C@H]1O | 9.74
81 | COc1ccc(Oc2cc(CN)ccn2)cc1 | 2.32
82 | CCc1nc(CNCC2CCCN2c2cccnn2)no1 (centres undefined) | -4.56
83 | CCc1nnc(CN(CC)C(=O)C(C)n2ccnc2C(C)C)o1 (centres undefined) | -5.37
84 | COc1ccc(CN2C[C@@H](OCc3csc(C)n3)[C@H]3COC[C@H]32)cc1 | -3.55
85 | CCS(=O)(=O)c1ccccc1N1CCC(NC2CCCC2)CC1 | -2.15
86 | Cc1cc(C2CCN(C(=O)c3cnn(C)c3)CC2)ccn1 | -5.33
87 | COCCOC[C@]1(CNCc2ccc(F)cc2)C[C@@H](O)[C@@H](O)C1 | 11.8
88 | Cc1ncsc1CCN(C)Cc1ccc(CO)o1 | -5.5
89 | Cc1cc(CNC(C)Cn2cncn2)ccc1Br (centres undefined) | -87.4
90 | CCOCc1ccccc1NC(=O)NCC(C)(O)c1ccsc1 (centres undefined) | -2.17
91 | CCN1CC(C(=O)NCc2cccc(SC)c2)CC1=O (centres undefined) | 18
92 | CC(=O)N1CCn2c(nnc2C2CCCCN2Cc2ccccc2Cl)C1 (centres undefined) | -3.34

Row | Structure (SMILES) | cytotoxicity at 70.5 h [%]
93 | O=C(c1cccc(-n2cnnc2)c1)N1C[C@@H](O)[C@H](N2CCOCC2)C1 | -1.32
94 | Cn1cc(N2C(=O)CC[C@@H]3[C@H]2CCN3CC2CCOCC2)cn1 | -14.3
95 | COC1CCN(CC(=O)NCc2ccc(OCC(N)=O)cc2)CC1 | 0.0627
96 | CS(=O)(=O)N1CCOCC2(CCN(Cc3ccc[nH]3)CC2)C1 | -5.4
97 | CC(C)n1nc2c(cc1=O)CN(CC1CCCCO1)CC2 (centres undefined) | -5.1
98 | O=C(CCc1ccsc1)N1CCCC(N2CCNC2=O)C1 (centres undefined) | -10.5
99 | Cc1ncccc1C(=O)NCc1ccccc1CN(C)Cc1ccco1 | -1.05
100 | Cc1cnn(CCC(=O)N2CCCC(c3nc(C)no3)C2)c1 (centres undefined) | 37.7
101 | Cn1cnc(NC(=O)C2CC(=O)N(c3cccc(F)c3)C2)n1 (centres undefined) | 18.3
102 | CSc1ccc(CN(C)Cc2noc(C(C)(C)C)n2)cc1 | -6.11
103 | CCC(C)(C)NC(=O)c1ccc(NC(=O)NCc2cc(C)on2)cc1 | -6.36
104 | Cc1ccccc1CN1CCCN(C(=O)c2ccn(C)c(=O)c2)CC1 | -1.43
105 | Cn1cccc1CN1CCC2(CC1)CCN(C(=O)c1cnccn1)CC2 | 10.8
106 | CC(=O)N1CCN(c2ncnc3cc4c(cc23)OCCO4)CC1 | -6.91
107 | CN1CCCN(C(=O)c2nc3c(o2)CN(C(=O)c2cccnc2)C3)CC1 | -1.59
108 | CN1CCc2[nH]cnc2C12CCN(Cc1ccc3nsnc3c1)CC2 | 0.284
109 | Fc1ccccc1CC1CCN(Cc2nccs2)CC1 | -3.29
110 | O=C(c1cc(Br)ccc1Cl)N1CCN(Cc2ccco2)CC1 | -4.63
111 | Cc1ccc(-n2nnc(CC(=O)N3CCOCC3)c2C)cc1 | -10.7
112 | Cn1ccnc1C(=O)NCCS(=O)(=O)c1ccc(C(C)(C)C)cc1 | -3.28
113 | CCc1ncc2c(n1)CN(CC(=O)Nc1cc(C)no1)CC2 | -0.924
114 | Cc1ccc(C(=O)N2CCOc3nc(C)ccc32)c(F)c1 | 26.7
